Source: patent US11833128B2, “Ketone carbonyl-containing hydrophobic antitumor drug and conjugate thereof as well as nano preparation containing conjugate, preparation method therefor, and application thereof” (Jiangsu Jibeier Pharmaceutical Co. Ltd., priority 2018, dated 2023)

Columns and labels:
[1] = test system: Hela tumor; assay: Effects of the pH-responsive nano preparations on tumor in vivo (Hela tumor-bearing mice); details: tail vein, once every seven days x3; for relative tumor inhibition rate: 30th day from the last administration
Experimental: Hela tumor-bearing mice were divided into four groups with five mice in each group. The first, second, and third groups were the treatment groups, in which tumor treatment was carried out by respectively injecting the drug via the tail vein of each Hela tumor-bearing mouse. […] The fourth group was the blank control group.
The mice in the first, second and third groups were treated by administering drugs once every seven days for a total of three injections. Each tumor-bearing mouse in each group was labeled, and the body weight and the tumor volume thereof throughout the treatment process were recorded. The tumor volume was calculated according to the following formula: V (mm^3)=½×length (mm)×width (mm)^2.
Moreover, the relative tumor inhibition rate was also calculated and analyzed.

[2] = test system: human lung cancer A549 xenograft; assay: Tumor inhibitory effect of DTX-AI in nude mice bearing human lung cancer A549 xenograft; details: iv x 4 (qw); for Animal body weight (g) (After tumor removal): Day 43; for Tumor inhibition rate %: Day 43 (21st day from the last administration);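 as to all read-outs here: mice implanted subcutaneously with A549 tumor fragments, grouped 14 days later at mean tumor volume near 210–250 mm^3, grouping set as Day 0, animals sacrificed on Day 43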
Description: A well-grown A549 lung cancer solid tumor was taken and cut into uniform small masses having a size of about 3 mm under sterile conditions. Each mouse was inoculated subcutaneously under the right armpit with one mass by using a trocar. 14 days after inoculation, the average tumor volume was about 210 to 250 mm^3. The mice were grouped according to the tumor sizes, and the average tumor volume of each group was basically the same. […] The long diameters (a) and the short diameters (b) of the tumors were measured with an electronic digital caliper twice a week. The calculation formula of tumor volume (TV) was: TV=½×a×b^2. The calculation formula of the relative tumor volume (RTV) was: RTV=Vt/V0, wherein V0 was the tumor volume measured at the time of grouping (namely, d0), and Vt was the tumor volume at each measurement. […] On Day 43 (56 days after inoculation), the animals were sacrificed and dissected, the tumors were incised and weighed, and the body weights of the animals after tumor removal were calculated.

## CC(=O)OC12COC1CC(O)C1(C)C(=O)C(OC(=O)Nc3ccc(C(C)=O)cc3)C3=C(C)C(OC(=O)C(O)C(NC(=O)OC(C)(C)C)c4ccccc4)CC(O)(C(OC(=O)c4ccccc4)C21)C3(C)C (stereo not shown) [DTX-AI]
[1]; 40 mg DTX/kg
  relative tumor volume after 21 days (after the administration was stopped) (FIG. 5): still showed a decreasing trend with time
  tumor sizes after the completion of the treatment (photograph, FIG. 7): significantly smaller than those of the first group and the blank control group
  relative tumor inhibition rate: 93.5%
[1]; 40 mg DTX/kg, compared with blank control group
  body weights of the mice over treatment time (FIG. 4): basically the same as those in the blank control group
[2]; 20 mg/kg
  RTV (Day 43): 6.62 ± 2.10
  body weights of the animals after administering (FIG. 9), in words: basically not affected
  Animal body weight (g) (After tumor removal): 25.52 ± 0.99 g
  Tumor inhibition rate %: 62.38%
[2]; 40 mg/kg, 60 mg/kg and 80 mg/kg groups
  tumor rebound after drug withdrawal: no tumor rebound occurred
[2]; 40 mg/kg
  RTV (Day 43): 0.13 ± 0.03
  body weights of the animals after administering (FIG. 9), in words: slightly reduced
  Animal body weight (g) (After tumor removal): 24.07 ± 1.19 g
  Tumor inhibition rate %: 99.28%
[2]; 60 mg/kg
  RTV (Day 43): 0.09 ± 0.02
  body weights of the animals after administering (FIG. 9), in words: slightly reduced
  Animal body weight (g) (After tumor removal): 24.24 ± 1.43 g
  Tumor inhibition rate %: 99.50%
[2]; 80 mg/kg
  RTV (Day 43): 0.13 ± 0.05
  body weights of the animals after administering (FIG. 9), in words: reduced
  Animal body weight (g) (After tumor removal): 20.99 ± 2.86 g
  Tumor inhibition rate %: 99.27%
[2]; 4 dose groups (20, 40, 60, 80 mg/kg)
  death of animals: No death occurred

## CC(=O)O[C@@]12CO[C@@H]1C[C@H](O)[C@@]1(C)C(=O)[C@H](O)C3=C(C)[C@@H](OC(=O)[C@H](O)[C@@H](NC(=O)OC(C)(C)C)c4ccccc4)C[C@@](O)([C@@H](OC(=O)c4ccccc4)[C@H]21)C3(C)C [Docetaxel, docetaxel, reference compound]
[1]; 25 mg DTX/kg
  relative tumor volume after 21 days (after the administration was stopped) (FIG. 5): continued to increase with time
  relative tumor inhibition rate: 67.62%
[2]; 20 mg/kg
  RTV (Day 43): 2.73 ± 1.36
  body weights of the animals after administering (FIG. 9), in words: reduced
  death of animals: no death
  Animal body weight (g) (After tumor removal): 25.35 ± 1.15 g
  Tumor inhibition rate %: 84.50%
[2]; 40 mg/kg
  RTV (Day 43): 0.13 ± 0.02
  body weights of the animals after administering (FIG. 9), in words: severely reduced
  Animal body weight (g) (After tumor removal): 18.71 ± 2.78 g
  Tumor inhibition rate %: 99.24%
[2]; 40 mg/kg, died on Day 33
  death of animals (number of animals died): 1 animal
